Data: patent US20050112573A1, “Method of detecting toxic substance” (priority 2001, published 2005)

Test system: yeast genes (level of expressed mRNA)
Assay: DNA chip analysis of expressed mRNA of yeast genes after 2 h culture with a toxic chemical substance
Type: cell-based, Saccharomyces cerevisiae S288C
Summary of the method: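 Values are treated-to-control fluorescence ratios from a whole-yeast-genome DNA chip (65° C, over 12 h hybridization) using Cy3/Cy5-labelled cDNA from mRNA. Log-phase S288C cells in YPD at 25° C were exposed 2 h to a toxicant at sublethal, growth-inhibiting concentration.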

HgCl2 [(3)]
The level of expressed mRNA in the presence of chemical substance/ (yeast gene YNL074C, ratio to control without chemical substance, 2 h culture): 1.8
The level of expressed mRNA in the presence of chemical substance/ (yeast gene YNL092W, ratio to control without chemical substance, 2 h culture): 2.4
The level of expressed mRNA in the presence of chemical substance/The level of expressed mRNA in the absence of chemical substance (yeast gene YNL093W): 0.4
The level of expressed mRNA in the presence of chemical substance/ (yeast gene YNL115C, ratio to control without chemical substance, 2 h culture): 1.6
The level of expressed mRNA in the presence of chemical substance/ (yeast gene YNL156C, ratio to control without chemical substance, 2 h culture): 0.9
The level of expressed mRNA in the presence of chemical substance/ (yeast gene YNL234W, ratio to control without chemical substance, 2 h culture): 0.6
The level of expressed mRNA in the presence of chemical substance/ (yeast gene YNL281W, ratio to control without chemical): 2.0
The level of expressed mRNA in the presence of chemical substance/ (yeast gene YNL305C, ratio to control without chemical): 2.7
The level of expressed mRNA in the presence of chemical substance/The level of expressed mRNA in the absence of chemical substance (yeast gene YNL333W): 1.7
The level of expressed mRNA in the presence of chemical substance/The level of expressed mRNA in the absence of chemical substance (yeast gene YNR010W): 0.5
The level of expressed mRNA in the presence of chemical substance/ (yeast gene YNR068C, ratio to control without chemical): 2.3
The level of expressed mRNA in the presence of chemical substance/The level of expressed mRNA in the absence of chemical substance (yeast gene YNR069C): 0.7
The level of expressed mRNA in the presence of chemical substance/in the absence of chemical substance (yeast gene YNR072W): 0.5
The level of expressed mRNA in the presence of chemical substance/The level of expressed mRNA in the absence of chemical substance (yeast gene YOL013C): 1.0
The level of expressed mRNA in the presence of chemical substance/ (yeast gene YOL032W, ratio to control without chemical): 2.0
The level of expressed mRNA in the presence of chemical substance/ (yeast gene YOL036W, ratio to control without chemical): 1.3
The level of expressed mRNA in the presence of chemical substance/ (yeast gene YOL047C, ratio to control without chemical): 1.1
The level of expressed mRNA in the presence of chemical substance/ (yeast gene YOL071W, ratio to control without chemical): 1.7
The level of expressed mRNA in the presence of chemical substance/ (yeast gene YOL082W, ratio to control without chemical): 1.6
The level of expressed mRNA in the presence of chemical substance/ (yeast gene YOL083W, ratio to control without chemical): 1.2
The level of expressed mRNA in the presence of chemical substance/in the absence of chemical substance (yeast gene YOL096C): 1.2
The level of expressed mRNA in the presence of chemical substance/ (yeast gene YOL117W, ratio to control without chemical): 0.5
The level of expressed mRNA in the presence of chemical substance/ (yeast gene YOL131W, ratio to control without chemical): 0.6
The level of expressed mRNA in the presence of chemical substance/ (yeast gene YOL150C, ratio to control without chemical substance, 2 h culture): 9.9
The level of expressed mRNA in the presence of chemical substance/ (yeast gene YOL162W, ratio to control without chemical): 1.7
The level of expressed mRNA in the presence of chemical substance/The level of expressed mRNA in the absence of chemical substance (yeast gene YOL164W): 1.0
The level of expressed mRNA in the presence of chemical substance/ (yeast gene YOR019W, ratio to control without chemical): 0.8
The level of expressed mRNA in the presence of chemical substance/The level of expressed mRNA in the absence of chemical substance (yeast gene YOR036W): 1.4
The level of expressed mRNA in the presence of chemical substance/The level of expressed mRNA in the absence of chemical substance (yeast gene YOR117W): 1.7
The level of expressed mRNA in the presence of chemical substance/The level of expressed mRNA in the absence of chemical substance (yeast gene YOR124C): 1.3
The level of expressed mRNA in the presence of chemical substance/The level of expressed mRNA in the absence of chemical substance (yeast gene YOR132W): 0.8
The level of expressed mRNA in the presence of chemical substance/The level of expressed mRNA in the absence of chemical substance (yeast gene YOR157C): 1.2
The level of expressed mRNA in the presence of chemical substance/in the absence of chemical substance (yeast gene YOR180C): 1.0
The level of expressed mRNA in the presence of chemical substance/The level of expressed mRNA in the absence of chemical substance (yeast gene YOR181W): 1.1
The level of expressed mRNA in the presence of chemical substance/The level of expressed mRNA in the absence of chemical substance (yeast gene YOR185C): 1.9
The level of expressed mRNA in the presence of chemical substance/ (yeast gene YOR197W, ratio to control without chemical): 1.1
The level of expressed mRNA in the presence of chemical substance/The level of expressed mRNA in the absence of chemical substance (yeast gene YOR198C): 1.4
The level of expressed mRNA in the presence of chemical substance/The level of expressed mRNA in the absence of chemical substance (yeast gene YOR259C): 0.8
The level of expressed mRNA in the presence of chemical substance/The level of expressed mRNA in the absence of chemical substance (yeast gene YOR261C): 0.6
The level of expressed mRNA in the presence of chemical substance/The level of expressed mRNA in the absence of chemical substance (yeast gene YOR288C): 1.1
The level of expressed mRNA in the presence of chemical substance/The level of expressed mRNA in the absence of chemical substance (yeast gene YOR355W): 1.1
The level of expressed mRNA in the presence of chemical substance/in the absence of chemical substance (yeast gene YOR363C): 0.9
The level of expressed mRNA in the presence of chemical substance/The level of expressed mRNA in the absence of chemical substance (yeast gene YOR383C): 2.6
The level of expressed mRNA in the presence of chemical substance/ (yeast gene YPL087W, ratio to control without chemical): 3.0
The level of expressed mRNA in the presence of chemical substance/The level of expressed mRNA in the absence of chemical substance (yeast gene YPL089C): 0.5
The level of expressed mRNA in the presence of chemical substance/The level of expressed mRNA in the absence of chemical substance (yeast gene YPL109C): 0.5
The level of expressed mRNA in the presence of chemical substance/The level of expressed mRNA in the absence of chemical substance (yeast gene YPL149W): 0.6
The level of expressed mRNA in the presence of chemical substance/The level of expressed mRNA in the absence of chemical substance (yeast gene YPL154C): 4.2
The level of expressed mRNA in the presence of chemical substance/ (yeast gene YPL196W, ratio to control without chemical): 1.3
The level of expressed mRNA in the presence of chemical substance/ (yeast gene YPL206C, ratio to control without chemical): 1.4
The level of expressed mRNA in the presence of chemical substance/ (yeast gene YPL222W, ratio to control without chemical): 0.8
The level of expressed mRNA in the presence of chemical substance/ (yeast gene YPR023C, ratio to control without chemical): 1.2
The level of expressed mRNA in the presence of chemical substance/The level of expressed mRNA in the absence of chemical substance (yeast gene YPR103W): 1.3
The level of expressed mRNA in the presence of chemical substance/The level of expressed mRNA in the absence of chemical substance (yeast gene YPR108W): 1.3
The level of expressed mRNA in the presence of chemical substance/ (yeast gene YPR151C, ratio to control without chemical): 1.5
The level of expressed mRNA in the presence of chemical substance/in the absence of chemical substance (yeast gene YPR184W): 5.7
